Measured values reported in ChEMBL document CHEMBL5291721, “A preclinical secondary pharmacology resource illuminates target-adverse drug reaction associations of marketed drugs” (Nat Commun, 2023).

Legend:
Bile salt export pump = Bile salt export pump (Homo sapiens, UniProt O95342); format: functional
Adenosine receptor A2a = Adenosine receptor A2a (Homo sapiens, UniProt P29274)
Adenosine receptor A3 = target: T1, Adenosine receptor A3 (Homo sapiens, UniProt P0DMS8)
T1 sequence (P0DMS8 whole entry): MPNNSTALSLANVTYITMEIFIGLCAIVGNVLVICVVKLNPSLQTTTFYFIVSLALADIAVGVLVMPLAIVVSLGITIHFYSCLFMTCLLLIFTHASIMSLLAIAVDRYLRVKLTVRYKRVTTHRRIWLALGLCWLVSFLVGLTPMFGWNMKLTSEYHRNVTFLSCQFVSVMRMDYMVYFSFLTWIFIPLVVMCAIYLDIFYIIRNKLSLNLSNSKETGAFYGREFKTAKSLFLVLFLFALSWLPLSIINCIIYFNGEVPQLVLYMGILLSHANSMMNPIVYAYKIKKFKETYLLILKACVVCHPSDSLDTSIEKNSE

[1] = target: T2, Alpha-2A adrenergic receptor (Homo sapiens, UniProt P08913); format: functional, cell-based
T2 sequence (P08913 whole entry): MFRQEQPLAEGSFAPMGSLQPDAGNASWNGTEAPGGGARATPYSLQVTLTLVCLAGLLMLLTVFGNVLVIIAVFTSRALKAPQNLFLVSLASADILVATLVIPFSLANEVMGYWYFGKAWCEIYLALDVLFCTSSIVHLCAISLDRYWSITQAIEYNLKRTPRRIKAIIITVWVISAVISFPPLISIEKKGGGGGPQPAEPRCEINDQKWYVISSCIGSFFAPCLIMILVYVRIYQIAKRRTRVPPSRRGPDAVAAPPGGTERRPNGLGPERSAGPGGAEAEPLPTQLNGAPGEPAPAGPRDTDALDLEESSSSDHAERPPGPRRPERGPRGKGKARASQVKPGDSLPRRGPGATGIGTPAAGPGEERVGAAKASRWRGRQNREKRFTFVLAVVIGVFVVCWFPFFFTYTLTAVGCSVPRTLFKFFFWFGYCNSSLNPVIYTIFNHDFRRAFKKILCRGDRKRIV

[2] = target: T3, Type-1 angiotensin II receptor (Homo sapiens, UniProt P30556)
T3 sequence (P30556 whole entry): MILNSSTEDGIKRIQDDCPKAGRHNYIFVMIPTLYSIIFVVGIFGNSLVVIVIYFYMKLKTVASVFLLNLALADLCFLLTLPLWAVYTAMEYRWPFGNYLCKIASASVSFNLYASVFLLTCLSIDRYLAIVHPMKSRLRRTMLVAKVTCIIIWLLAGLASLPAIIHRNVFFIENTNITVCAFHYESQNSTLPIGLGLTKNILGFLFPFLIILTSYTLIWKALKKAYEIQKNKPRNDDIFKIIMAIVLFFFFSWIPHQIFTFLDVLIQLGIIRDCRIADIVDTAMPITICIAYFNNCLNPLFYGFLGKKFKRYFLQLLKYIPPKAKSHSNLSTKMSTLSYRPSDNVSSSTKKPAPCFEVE

[3] = target: Neuronal acetylcholine receptor subunit alpha-4 (Homo sapiens, UniProt P43681)
[4] = target: Growth hormone secretagogue receptor type 1 (Homo sapiens, UniProt Q92847)
[5] = target: T4, 5-hydroxytryptamine receptor 1A (Homo sapiens, UniProt P08908); format: functional, cell-based
T4 sequence (P08908 whole entry): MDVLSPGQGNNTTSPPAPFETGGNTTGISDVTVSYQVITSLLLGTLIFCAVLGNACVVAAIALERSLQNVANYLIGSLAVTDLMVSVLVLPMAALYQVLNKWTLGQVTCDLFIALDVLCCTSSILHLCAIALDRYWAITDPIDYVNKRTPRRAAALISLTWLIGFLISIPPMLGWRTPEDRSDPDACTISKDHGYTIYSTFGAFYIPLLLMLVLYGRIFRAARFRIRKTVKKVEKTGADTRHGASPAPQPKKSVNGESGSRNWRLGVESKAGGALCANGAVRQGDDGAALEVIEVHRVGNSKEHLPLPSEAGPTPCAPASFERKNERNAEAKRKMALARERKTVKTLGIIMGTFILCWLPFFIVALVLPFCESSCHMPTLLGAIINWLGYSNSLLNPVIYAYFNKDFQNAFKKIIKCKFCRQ

[6] = target: 5-hydroxytryptamine receptor 2B (Homo sapiens, UniProt P41595); format: functional, cell-based
[7] = target: T5, 5-hydroxytryptamine receptor 3A (Homo sapiens, UniProt P46098); format: functional
T5 sequence (P46098 whole entry): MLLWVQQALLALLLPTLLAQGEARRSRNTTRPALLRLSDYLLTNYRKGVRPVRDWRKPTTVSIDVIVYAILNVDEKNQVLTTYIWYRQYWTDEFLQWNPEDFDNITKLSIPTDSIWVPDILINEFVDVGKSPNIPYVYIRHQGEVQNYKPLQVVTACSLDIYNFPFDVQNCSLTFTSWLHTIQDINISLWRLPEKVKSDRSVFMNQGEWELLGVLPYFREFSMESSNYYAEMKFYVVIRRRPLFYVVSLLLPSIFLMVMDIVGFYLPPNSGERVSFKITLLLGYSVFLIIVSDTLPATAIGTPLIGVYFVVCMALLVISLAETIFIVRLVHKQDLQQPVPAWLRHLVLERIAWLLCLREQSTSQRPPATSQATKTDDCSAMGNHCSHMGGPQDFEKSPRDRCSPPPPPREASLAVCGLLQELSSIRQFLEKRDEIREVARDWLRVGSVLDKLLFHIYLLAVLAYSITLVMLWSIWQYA

Melanocortin receptor 3 = Melanocortin receptor 3 (Homo sapiens, UniProt P41968)
Motilin receptor = Motilin receptor (Homo sapiens, UniProt O43193)
[8] = target: Sodium-dependent noradrenaline transporter (Homo sapiens, UniProt P23975)
D(3) dopamine receptor = D(3) dopamine receptor (Homo sapiens, UniProt P35462)
Also: assay procedure not described here.

Sequence of Bile salt export pump (O95342 whole entry): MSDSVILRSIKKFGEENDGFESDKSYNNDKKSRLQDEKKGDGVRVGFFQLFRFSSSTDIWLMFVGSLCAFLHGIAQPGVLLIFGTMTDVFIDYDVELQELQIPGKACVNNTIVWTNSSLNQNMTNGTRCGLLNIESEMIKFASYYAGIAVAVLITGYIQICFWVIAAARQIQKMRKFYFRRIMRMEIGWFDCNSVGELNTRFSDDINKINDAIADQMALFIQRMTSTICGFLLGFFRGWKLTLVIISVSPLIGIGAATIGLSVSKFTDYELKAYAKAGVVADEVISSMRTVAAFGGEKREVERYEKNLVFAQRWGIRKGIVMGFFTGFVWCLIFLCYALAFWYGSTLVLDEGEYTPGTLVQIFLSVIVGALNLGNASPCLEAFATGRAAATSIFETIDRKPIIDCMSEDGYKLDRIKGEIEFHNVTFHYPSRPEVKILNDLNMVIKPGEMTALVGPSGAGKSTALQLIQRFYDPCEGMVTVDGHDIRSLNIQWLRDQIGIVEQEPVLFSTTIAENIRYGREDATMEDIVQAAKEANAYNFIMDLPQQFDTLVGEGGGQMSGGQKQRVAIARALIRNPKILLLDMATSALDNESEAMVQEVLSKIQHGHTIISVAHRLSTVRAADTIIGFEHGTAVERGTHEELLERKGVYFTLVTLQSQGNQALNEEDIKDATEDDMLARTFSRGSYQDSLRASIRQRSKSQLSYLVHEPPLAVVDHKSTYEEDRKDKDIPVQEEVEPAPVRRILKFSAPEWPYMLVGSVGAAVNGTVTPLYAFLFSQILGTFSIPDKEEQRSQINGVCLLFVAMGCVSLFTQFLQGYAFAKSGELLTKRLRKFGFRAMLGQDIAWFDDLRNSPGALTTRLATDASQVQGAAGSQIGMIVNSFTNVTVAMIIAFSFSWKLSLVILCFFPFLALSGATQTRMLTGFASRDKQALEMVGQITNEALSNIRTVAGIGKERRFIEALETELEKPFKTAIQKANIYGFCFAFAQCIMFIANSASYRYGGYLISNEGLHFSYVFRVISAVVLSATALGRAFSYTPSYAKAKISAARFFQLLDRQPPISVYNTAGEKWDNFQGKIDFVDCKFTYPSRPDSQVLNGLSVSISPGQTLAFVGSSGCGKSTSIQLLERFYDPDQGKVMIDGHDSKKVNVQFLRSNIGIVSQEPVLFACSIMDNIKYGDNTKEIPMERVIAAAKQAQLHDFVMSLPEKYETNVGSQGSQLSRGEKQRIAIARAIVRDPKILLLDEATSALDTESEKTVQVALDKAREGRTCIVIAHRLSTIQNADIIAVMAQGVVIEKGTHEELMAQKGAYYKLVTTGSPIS
Sequence of 5-hydroxytryptamine receptor 2B (P41595 whole entry): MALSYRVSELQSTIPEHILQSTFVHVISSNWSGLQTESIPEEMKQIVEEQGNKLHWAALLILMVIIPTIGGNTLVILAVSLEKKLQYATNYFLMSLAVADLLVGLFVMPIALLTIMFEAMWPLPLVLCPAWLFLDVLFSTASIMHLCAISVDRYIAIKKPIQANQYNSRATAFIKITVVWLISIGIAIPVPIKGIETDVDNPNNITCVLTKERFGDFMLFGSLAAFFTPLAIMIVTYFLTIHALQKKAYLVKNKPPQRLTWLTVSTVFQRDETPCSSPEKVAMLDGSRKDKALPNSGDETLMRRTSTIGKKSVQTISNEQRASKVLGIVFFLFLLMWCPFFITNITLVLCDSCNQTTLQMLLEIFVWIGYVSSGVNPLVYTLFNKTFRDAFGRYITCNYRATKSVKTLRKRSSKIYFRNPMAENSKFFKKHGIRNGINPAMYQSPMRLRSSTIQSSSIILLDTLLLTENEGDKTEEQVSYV
Sequence of Neuronal acetylcholine receptor subunit alpha-4 (P43681 whole entry): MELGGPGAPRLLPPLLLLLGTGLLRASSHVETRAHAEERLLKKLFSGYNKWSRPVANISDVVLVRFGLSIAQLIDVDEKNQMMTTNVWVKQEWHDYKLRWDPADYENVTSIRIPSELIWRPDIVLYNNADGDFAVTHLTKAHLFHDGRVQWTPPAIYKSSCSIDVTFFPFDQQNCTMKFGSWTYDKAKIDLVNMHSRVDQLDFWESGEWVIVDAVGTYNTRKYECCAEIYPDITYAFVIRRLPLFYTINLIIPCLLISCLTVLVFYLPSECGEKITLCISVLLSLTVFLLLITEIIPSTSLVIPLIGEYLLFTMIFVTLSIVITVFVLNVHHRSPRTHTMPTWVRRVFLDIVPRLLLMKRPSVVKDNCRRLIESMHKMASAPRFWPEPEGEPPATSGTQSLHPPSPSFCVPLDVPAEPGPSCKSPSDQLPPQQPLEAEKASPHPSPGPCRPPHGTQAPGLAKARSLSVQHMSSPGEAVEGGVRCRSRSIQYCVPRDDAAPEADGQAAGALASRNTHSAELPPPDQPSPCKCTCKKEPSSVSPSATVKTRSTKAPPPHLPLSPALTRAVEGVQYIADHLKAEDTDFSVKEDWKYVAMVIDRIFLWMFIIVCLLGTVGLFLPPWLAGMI
Sequence of Adenosine receptor A2a (P29274 whole entry): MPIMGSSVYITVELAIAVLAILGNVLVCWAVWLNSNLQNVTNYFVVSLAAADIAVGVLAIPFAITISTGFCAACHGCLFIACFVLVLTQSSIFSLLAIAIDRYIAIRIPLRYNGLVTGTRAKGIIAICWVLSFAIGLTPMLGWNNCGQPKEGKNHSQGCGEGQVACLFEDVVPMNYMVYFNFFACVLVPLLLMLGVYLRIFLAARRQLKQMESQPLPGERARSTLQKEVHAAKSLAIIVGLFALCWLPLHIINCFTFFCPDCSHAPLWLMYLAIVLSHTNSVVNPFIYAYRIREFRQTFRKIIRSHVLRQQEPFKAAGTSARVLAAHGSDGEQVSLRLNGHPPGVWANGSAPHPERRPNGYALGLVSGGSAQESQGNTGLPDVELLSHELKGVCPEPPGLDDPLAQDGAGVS
Sequence of Sodium-dependent noradrenaline transporter (P23975 whole entry): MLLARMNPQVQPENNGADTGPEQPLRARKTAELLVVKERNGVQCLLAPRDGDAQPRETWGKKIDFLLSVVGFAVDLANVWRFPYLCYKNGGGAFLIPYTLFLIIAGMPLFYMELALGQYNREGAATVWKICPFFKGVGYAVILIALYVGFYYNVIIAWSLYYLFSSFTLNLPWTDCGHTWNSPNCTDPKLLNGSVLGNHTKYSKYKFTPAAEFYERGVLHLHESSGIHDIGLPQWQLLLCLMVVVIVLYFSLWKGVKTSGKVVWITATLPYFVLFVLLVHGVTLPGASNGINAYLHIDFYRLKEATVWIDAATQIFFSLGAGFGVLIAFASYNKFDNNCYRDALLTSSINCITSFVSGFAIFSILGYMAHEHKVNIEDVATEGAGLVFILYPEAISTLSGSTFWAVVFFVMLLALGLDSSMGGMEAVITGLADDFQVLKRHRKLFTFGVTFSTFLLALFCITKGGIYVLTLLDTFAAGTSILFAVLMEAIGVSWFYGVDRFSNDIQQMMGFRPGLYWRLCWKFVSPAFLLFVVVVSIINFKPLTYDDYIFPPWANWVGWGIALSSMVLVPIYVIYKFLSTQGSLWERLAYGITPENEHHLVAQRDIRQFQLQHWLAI
Sequence of D(3) dopamine receptor (P35462 whole entry): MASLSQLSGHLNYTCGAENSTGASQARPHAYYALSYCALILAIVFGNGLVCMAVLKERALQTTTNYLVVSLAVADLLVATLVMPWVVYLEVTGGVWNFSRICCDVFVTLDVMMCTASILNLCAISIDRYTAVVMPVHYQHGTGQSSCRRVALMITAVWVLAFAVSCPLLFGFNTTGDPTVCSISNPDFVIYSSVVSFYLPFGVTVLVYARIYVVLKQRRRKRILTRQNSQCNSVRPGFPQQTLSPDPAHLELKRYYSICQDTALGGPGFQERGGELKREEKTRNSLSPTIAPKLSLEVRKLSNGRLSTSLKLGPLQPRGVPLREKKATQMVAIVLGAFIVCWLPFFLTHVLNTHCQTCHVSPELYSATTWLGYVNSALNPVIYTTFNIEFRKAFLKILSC
Sequence of Melanocortin receptor 3 (P41968 whole entry): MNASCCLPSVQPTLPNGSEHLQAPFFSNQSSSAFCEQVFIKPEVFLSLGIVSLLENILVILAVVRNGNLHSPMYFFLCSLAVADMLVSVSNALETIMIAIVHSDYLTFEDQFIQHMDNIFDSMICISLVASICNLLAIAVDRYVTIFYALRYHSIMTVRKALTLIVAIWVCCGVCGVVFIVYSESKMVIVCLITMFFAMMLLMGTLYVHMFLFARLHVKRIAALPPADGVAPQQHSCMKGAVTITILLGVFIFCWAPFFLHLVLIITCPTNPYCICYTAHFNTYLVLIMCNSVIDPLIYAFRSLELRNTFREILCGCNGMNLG
Sequence of Motilin receptor (O43193 whole entry): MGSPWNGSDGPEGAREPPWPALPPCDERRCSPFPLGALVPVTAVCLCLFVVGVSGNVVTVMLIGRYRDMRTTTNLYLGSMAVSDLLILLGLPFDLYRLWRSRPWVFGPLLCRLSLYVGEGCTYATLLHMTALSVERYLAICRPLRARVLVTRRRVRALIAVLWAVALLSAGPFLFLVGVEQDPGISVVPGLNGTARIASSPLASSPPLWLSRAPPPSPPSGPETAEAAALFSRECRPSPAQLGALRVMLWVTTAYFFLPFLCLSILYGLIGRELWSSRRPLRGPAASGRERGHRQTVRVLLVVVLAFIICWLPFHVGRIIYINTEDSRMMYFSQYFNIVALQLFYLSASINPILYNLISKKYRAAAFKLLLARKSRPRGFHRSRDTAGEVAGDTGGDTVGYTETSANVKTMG
Sequence of Growth hormone secretagogue receptor type 1 (Q92847 whole entry): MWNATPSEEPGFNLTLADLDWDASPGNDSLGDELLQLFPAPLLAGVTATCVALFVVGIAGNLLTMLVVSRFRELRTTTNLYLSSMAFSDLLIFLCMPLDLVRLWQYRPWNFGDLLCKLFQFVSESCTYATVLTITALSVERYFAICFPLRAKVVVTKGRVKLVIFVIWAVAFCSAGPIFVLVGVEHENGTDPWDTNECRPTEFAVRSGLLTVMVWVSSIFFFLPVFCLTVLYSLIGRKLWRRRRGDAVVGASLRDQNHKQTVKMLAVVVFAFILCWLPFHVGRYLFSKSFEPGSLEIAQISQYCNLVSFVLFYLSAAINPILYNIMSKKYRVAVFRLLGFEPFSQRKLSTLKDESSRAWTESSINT

Compound	AC50 (Bile salt export pump) [µM]	AC50 (Adenosine receptor A2a) [µM]	AC50 (Adenosine receptor A3) [µM]	AC50 [1] [µM]	AC50 [2] [µM]	AC50 [3] [µM]	AC50 [4] [µM]	AC50 [5] [µM]	AC50 [6] [µM]	AC50 [7] [µM]	AC50 (Melanocortin receptor 3) [µM]	AC50 (Motilin receptor) [µM]	AC50 [8] [µM]	AC50 (D(3) dopamine receptor) [µM]
OC[C@H]1NC[C@H](O)[C@@H](O)[C@H]1O	> 300	–	–	–	–	–	–	–	–	–	–	–	–	–
O=C(O)[C@@H](S)[C@@H](S)C(=O)O	50	–	–	–	–	–	–	–	–	–	–	–	–	–
CCC[C@@]1(CCc2ccccc2)CC(O)=C([C@H](CC)c2cccc(NS(=O)(=O)c3ccc(C(F)(F)F)cn3)c2)C(=O)O1	3.2	> 30	6.4	> 30	11	> 30	> 30	> 30	7.5	> 30	> 30	27	> 30	> 30
C=CC1=C(C(=O)O)N2C(=O)[C@@H](NC(=O)/C(=N\O)c3csc(N)n3)[C@H]2SC1	> 300	> 30	> 30	> 10	> 30	> 10	> 30	> 10	> 10	> 30	> 30	> 10	> 30	> 30
C=CCOc1ccc(CC(=O)O)cc1Cl [ALCLOFENAC]	> 300	–	–	–	–	–	–	–	–	–	–	–	–	–
CN(C)CCC=C1c2ccccc2CCc2ccccc21 [AMITRIPTYLINE]	180	> 30	14.1	> 10	1.4	> 30	> 30	> 10	–	8.7	23	> 30	–	0.44
CC(C)NCC(O)COc1ccc(CC(N)=O)cc1 (stereo not given) [ATENOLOL]	> 300	> 30	> 30	> 30	> 30	> 30	> 30	> 30	–	> 30	> 30	> 30	> 30	> 30
O=C(Cc1cccs1)N[C@@H]1C(=O)N2C(C(=O)[O-])=C(C[n+]3ccccc3)CS[C@H]12 [CEPHALORIDINE]	–	–	–	> 30	–	–	–	> 30	> 30	> 30	–	–	–	> 30
CN1CCN(C(c2ccccc2)c2ccc(Cl)cc2)CC1 (stereo not given) [CHLORCYCLIZINE]	> 300	–	–	–	–	–	–	–	–	–	–	–	–	–
CN(C)CCCC1(c2ccc(F)cc2)OCc2cc(C#N)ccc21 (stereo not given) [CITALOPRAM]	> 300	> 30	> 30	> 10	> 30	–	> 30	> 10	0.678	> 30	> 30	> 10	–	–
O=P1(N(CCCl)CCCl)NCCCO1 (stereo not given) [CYCLOPHOSPHAMIDE ANHYDROUS]	> 300	–	–	–	–	–	–	–	–	–	–	–	–	–
O=c1[nH]c2ccccc2n1CCN1CCN(c2cccc(C(F)(F)F)c2)CC1 [FLIBANSERIN]	29	–	–	–	–	–	–	–	–	–	–	–	–	–
O=c1[nH]cc(F)c(=O)[nH]1 [FLUOROURACIL]	–	> 30	> 30	–	> 30	> 30	> 30	–	–	–	> 30	> 30	> 30	–
N#Cc1ccnc(N2C(=O)CC[C@H]2C(=O)N(c2cncc(F)c2)[C@H](C(=O)NC2CC(F)(F)C2)c2ccccc2Cl)c1 [IVOSIDENIB]	79	–	–	–	–	–	–	–	–	–	–	–	–	–
CC(=O)NC[C@H]1CN(c2ccc(N3CCOCC3)c(F)c2)C(=O)O1 [LINEZOLID]	> 300	> 30	> 30	> 30	> 30	> 30	> 30	> 30	–	> 30	> 30	–	–	> 30
O=NN(CCCl)C(=O)NC1CCCCC1 [LOMUSTINE]	> 300	–	–	–	–	–	–	–	–	–	–	–	–	–
O=C1[C@@H]2[C@H]3CC[C@H](C3)[C@@H]2C(=O)N1C[C@@H]1CCCC[C@H]1CN1CCN(c2nsc3ccccc23)CC1 [LURASIDONE]	13	> 30	9.9	–	> 30	> 10	> 30	–	0.071	> 30	> 30	> 30	> 30	0.43
CCCCCCO[C@@H](C)c1cccc(-c2csc(NC(=O)c3cc(Cl)c(/C=C(\C)C(=O)O)c(Cl)c3)n2)c1OC [LUSUTROMBOPAG]	4	–	–	–	–	–	–	–	–	–	–	–	–	–
Cc1cc(C)cc(OCC2CNC(=O)O2)c1 (stereo not given) [METAXALONE]	> 300	–	–	–	–	–	–	–	–	–	–	–	–	–
CS(=O)(=O)Nc1ccc([N+](=O)[O-])cc1Oc1ccccc1 [NIMESULIDE]	110	20	–	> 30	20	21	30	> 30	–	> 30	> 30	27	19	> 30
CCCCCCCC/C=C\CCCCCCCC(=O)O [OLEIC ACID]	260	–	–	–	–	–	–	–	–	–	–	–	–	–
C#CCN(C)Cc1ccccc1 [PARGYLINE]	–	–	–	> 30	–	–	–	> 30	> 30	> 30	–	–	–	–
CC1=C(C/C=C(\C)CCC[C@H](C)CCC[C@H](C)CCCC(C)C)C(=O)c2ccccc2C1=O [PHYTONADIONE]	160	–	–	–	–	–	–	–	–	–	–	–	–	–
Cc1ccc(C(C)C)c(O)c1 [THYMOL]	> 300	–	–	–	–	–	–	–	–	–	–	–	–	–
CN(C)CCN(Cc1ccccc1)c1ccccn1 [TRIPELENNAMINE]	–	> 10	> 10	> 10	> 10	> 10	> 10	> 10	> 10	> 30	> 10	> 10	13.4	> 10
c1cnc2cc3c(cc2n1)[C@@H]1CNC[C@H]3C1 [VARENICLINE]	> 300	> 30	> 30	> 30	> 30	–	> 30	> 30	> 30	13	> 30	> 30	> 30	> 30
